Assay results taken from PubChem BioAssay (NCI).
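Protocol summary: plate cells (96-well), add compound at 5 concentrations, incubate 48 h, interpolate endpoints linearly. GI50 is the concentration that inhibits growth by half. Definition used: TGI = concentration required for complete inhibition of growth.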

Legend:
Assay in all cases: DTP human tumour cell line panel, 48 h
786-0 renal = test system: 786-0 renal
A498 renal = test system: A498 renal
A549 NSCLC = test system: A549 NSCLC
ACHN renal = test system: ACHN renal
BT-549 breast = test system: BT-549 breast
CAKI-1 renal = test system: CAKI-1 renal
CCRF-CEM leukemia = test system: CCRF-CEM leukemia
COLO 205 colon = test system: COLO 205 colon
DU-145 prostate = test system: DU-145 prostate
EKVX NSCLC = test system: EKVX NSCLC
HCC-2998 colon = test system: HCC-2998 colon
HCT-116 colon = test system: HCT-116 colon
HCT-15 colon = test system: HCT-15 colon
HL-60(TB) leukemia = test system: HL-60(TB) leukemia
HOP-62 NSCLC = test system: HOP-62 NSCLC
HOP-92 NSCLC = test system: HOP-92 NSCLC
HS 578T breast = test system: HS 578T breast
HT29 colon = test system: HT29 colon
IGROV1 ovarian = test system: IGROV1 ovarian
K-562 leukemia = test system: K-562 leukemia
KM12 colon = test system: KM12 colon
LOX IMVI melanoma = test system: LOX IMVI melanoma
M14 melanoma = test system: M14 melanoma
MALME-3M melanoma = test system: MALME-3M melanoma
MCF7 breast = test system: MCF7 breast
MDA-MB-231 breast = test system: MDA-MB-231 breast
MDA-MB-435 = test system: MDA-MB-435
MOLT-4 leukemia = test system: MOLT-4 leukemia
NCI-H226 lung = test system: NCI-H226 lung
NCI-H23 lung = test system: NCI-H23 lung
NCI-H460 lung = test system: NCI-H460 lung
NCI-H522 lung = test system: NCI-H522 lung
NCI/ADR-RES ovarian = test system: NCI/ADR-RES ovarian
OVCAR-3 ovarian = test system: OVCAR-3 ovarian
OVCAR-4 ovarian = test system: OVCAR-4 ovarian
OVCAR-5 ovarian = test system: OVCAR-5 ovarian
OVCAR-8 ovarian = test system: OVCAR-8 ovarian
PC-3 prostate = test system: PC-3 prostate
RPMI-8226 leukemia = test system: RPMI-8226 leukemia
RXF 393 renal = test system: RXF 393 renal
SF-268 CNS = test system: SF-268 CNS
SF-295 CNS = test system: SF-295 CNS
SF-539 CNS = test system: SF-539 CNS
SK-MEL-2 melanoma = test system: SK-MEL-2 melanoma
SK-MEL-28 melanoma = test system: SK-MEL-28 melanoma
SK-MEL-5 melanoma = test system: SK-MEL-5 melanoma
SK-OV-3 ovarian = test system: SK-OV-3 ovarian
SN12C renal = test system: SN12C renal
SNB-19 CNS = test system: SNB-19 CNS
SNB-75 CNS = test system: SNB-75 CNS
SR leukemia = test system: SR leukemia
SW-620 colon = test system: SW-620 colon
T-47D breast = test system: T-47D breast
TK-10 renal = test system: TK-10 renal
U251 CNS = test system: U251 CNS
UACC-257 melanoma = test system: UACC-257 melanoma
UACC-62 melanoma = test system: UACC-62 melanoma
UO-31 renal = test system: UO-31 renal

## O=C(Nc1cccc(-c2nc(-c3ccc(NC(=O)c4cccs4)cc3Cl)no2)c1)Nc1ccc(NC(=O)C2CC2)c(C(F)(F)F)c1
786-0 renal
  GI50: 283 nM
  TGI: 1010 nM
A498 renal
  GI50: 174 nM
  TGI: 742 nM
A549 NSCLC
  GI50: 246 nM
  TGI: 653 nM
ACHN renal
  GI50: 467 nM
  TGI: 3860 nM
BT-549 breast
  GI50: 414 nM
  TGI: 2430 nM
CAKI-1 renal
  GI50: 244 nM
  TGI: 678 nM
CCRF-CEM leukemia
  GI50: 518 nM
  TGI: > 35400 nM
COLO 205 colon
  GI50: 291 nM
  TGI: 903 nM
DU-145 prostate
  GI50: 317 nM
  TGI: 1130 nM
EKVX NSCLC
  GI50: 295 nM
  TGI: 1200 nM
HCC-2998 colon
  GI50: 321 nM
  TGI: 1140 nM
HCT-116 colon
  GI50: 321 nM
  TGI: 1690 nM
HCT-15 colon
  GI50: 409 nM
  TGI: 1850 nM
HL-60(TB) leukemia
  GI50: 2270 nM
  TGI: > 26800 nM
HOP-62 NSCLC
  GI50: 241 nM
  TGI: 624 nM
HOP-92 NSCLC
  GI50: 180 nM
  TGI: 450 nM
HS 578T breast
  GI50: 230 nM
  TGI: 678 nM
HT29 colon
  GI50: 347 nM
  TGI: 2110 nM
IGROV1 ovarian
  GI50: 229 nM
  TGI: 574 nM
K-562 leukemia
  GI50: 296 nM
  TGI: 1670 nM
KM12 colon
  GI50: 317 nM
  TGI: 1050 nM
LOX IMVI melanoma
  GI50: 185 nM
  TGI: 356 nM
M14 melanoma
  GI50: 324 nM
  TGI: 1270 nM
MALME-3M melanoma
  GI50: 183 nM
  TGI: 376 nM
MCF7 breast
  GI50: 220 nM
  TGI: 643 nM
MDA-MB-231 breast
  GI50: 219 nM
  TGI: 557 nM
MDA-MB-435
  GI50: 230 nM
  TGI: 547 nM
MOLT-4 leukemia
  GI50: 359 nM
  TGI: 1790 nM
NCI-H226 lung
  GI50: 227 nM
  TGI: 601 nM
NCI-H23 lung
  GI50: 226 nM
  TGI: 571 nM
NCI-H460 lung
  GI50: 204 nM
  TGI: 412 nM
NCI-H522 lung
  GI50: 244 nM
  TGI: 729 nM
NCI/ADR-RES ovarian
  GI50: 3610 nM
  TGI: > 100000 nM
OVCAR-3 ovarian
  GI50: 280 nM
  TGI: 778 nM
OVCAR-4 ovarian
  GI50: 223 nM
  TGI: 492 nM
OVCAR-5 ovarian
  GI50: 306 nM
  TGI: 1140 nM
OVCAR-8 ovarian
  GI50: 311 nM
  TGI: 1330 nM
PC-3 prostate
  GI50: 209 nM
  TGI: 460 nM
RPMI-8226 leukemia
  GI50: 396 nM
  TGI: 2140 nM
RXF 393 renal
  GI50: 214 nM
  TGI: 494 nM
SF-268 CNS
  GI50: 344 nM
  TGI: 1450 nM
SF-295 CNS
  GI50: 191 nM
  TGI: 370 nM
SF-539 CNS
  GI50: 188 nM
  TGI: 381 nM
SK-MEL-2 melanoma
  GI50: 343 nM
  TGI: 1290 nM
SK-MEL-28 melanoma
  GI50: 209 nM
  TGI: 450 nM
SK-MEL-5 melanoma
  GI50: 478 nM
  TGI: 1870 nM
SK-OV-3 ovarian
  GI50: 795 nM
  TGI: 2990 nM
SN12C renal
  GI50: 220 nM
  TGI: 576 nM
SNB-19 CNS
  GI50: 301 nM
  TGI: 1060 nM
SNB-75 CNS
  GI50: 183 nM
  TGI: 1010 nM
SR leukemia
  GI50: 254 nM
  TGI: 898 nM
SW-620 colon
  GI50: 256 nM
  TGI: 660 nM
T-47D breast
  GI50: 257 nM
  TGI: 972 nM
TK-10 renal
  GI50: 338 nM
  TGI: 1540 nM
U251 CNS
  GI50: 193 nM
  TGI: 414 nM
UACC-257 melanoma
  GI50: 836 nM
  TGI: 3230 nM
UACC-62 melanoma
  GI50: 205 nM
  TGI: 527 nM
UO-31 renal
  GI50: 993 nM
  TGI: 3090 nM
